Assays:
[1] = test system: Plasmodium falciparum; assay: Antimalarial activity against Plasmodium falciparum 3D7 after 72 hrs by SYBR Green fluorescence assay; assay type: functional, organism-based; conditions: 3D7, 72 h
[2] = Cytotoxicity against african green monkey Vero cells after 2 days by resazurin assay; assay type: cell-based; conditions: chlorocebus sabaeus
[3] = test system: Plasmodium falciparum; assay: Antimalarial activity against Plasmodium falciparum K1 after 72 hrs by SYBR Green fluorescence assay; assay type: functional, organism-based; conditions: K1, 72 h
[4] = test system: Heme; assay: Inhibition of heme polymerization in Plasmodium yoelii nigeriensis infected erythrocytes (unknown origin) extract at 100 uM after 4 hrs by spectrophotometry
[5] = Terminal elimination half-life in Sprague-Dawley rat at 5 mg/kg, iv; assay type: ADME, organism-based; parameters: dose 5 mg/kg, route intravenous; conditions: in vivo, read-out: beta t1/2 (converted)
[6] = Volume of distribution in Sprague-Dawley rat at 5 mg/kg, iv; assay type: ADME, organism-based; parameters: dose 5 mg/kg, route intravenous; conditions: in vivo
[7] = Systemic clearance in Sprague-Dawley rat at 5 mg/kg, iv; assay type: ADME, organism-based; parameters: dose 5 mg/kg, route intravenous; conditions: in vivo

Row | Compound | IC50 [1] | CC50 at 48 h [2] | IC50 [3] | inhibition [4] | half-life [5] | Vd [6] | clearance [7]
1 | CCOC(=O)/C=C/c1cccc(NC(=S)Nc2ccccc2)c1 | > 20 µM | 279 µM | > 20 µM | – | – | – | –
2 | CCN(CC)CCCC(C)Nc1ccnc2cc(Cl)ccc12 (centres undefined) [CHLOROQUINE] | – | 685 µM | – | – | – | – | –
3 | CC(=O)OC[C@H]1O[C@@H](CC(=O)/C=C/c2cccc(NC(=S)Nc3ccccc3)c2)[C@@H](OC(C)=O)[C@@H](OC(C)=O)[C@@H]1OC(C)=O | 3.73 µM | 65.1 µM | 2.87 µM | – | – | – | –
4 | Cc1ccc(S(=O)(=O)Nc2cccc(/C=C/C(=O)C[C@@H]3O[C@H](CO)[C@@H](O)[C@H](O)[C@@H]3O)c2)cc1 | 3.89 µM | 417 µM | 5.11 µM | – | – | – | –
5 | CCOC(=O)/C=C/c1cccc(NC(=O)Nc2ccccc2)c1 | 8.8 µM | 293 µM | 13.4 µM | – | – | – | –
6 | CC(=O)OC[C@H]1O[C@@H](CC(=O)/C=C/c2cccc(NC(=O)Nc3ccccc3)c2)[C@H](OC(C)=O)[C@@H](OC(C)=O)[C@@H]1OC(C)=O | 2.29 µM | 180 µM | 2.4 µM | 72.5% | – | – | –
7 | O=C(/C=C/c1ccc(NC(=S)Nc2ccccc2)cc1)C[C@@H]1O[C@H](CO)[C@@H](O)[C@H](O)[C@H]1O | 11.8 µM | 274 µM | 13.8 µM | – | – | – | –
8 | COc1ccc(NC(=O)Nc2ccccc2)c([N+](=O)[O-])c1 | > 20 µM | 356 µM | 18 µM | – | – | – | –
9 | COc1cc([N+](=O)[O-])ccc1NC(=S)Nc1cccc(/C=C/C(=O)C[C@@H]2O[C@H](COC(C)=O)[C@@H](OC(C)=O)[C@H](OC(C)=O)[C@H]2OC(C)=O)c1 | 0.55 µM | 559 µM | 0.42 µM | 72.1% | – | – | –
10 | O=C(/C=C/c1ccc(NC(=O)Nc2ccc3ccccc3c2)cc1)C[C@@H]1O[C@H](CO)[C@@H](O)[C@H](O)[C@H]1O | 5.91 µM | 1020 µM | 5.28 µM | – | – | – | –
11 | CC(=O)O[C@@H]1[C@@H](OC(C)=O)[C@H](OC(C)=O)CO[C@H]1CC(=O)/C=C/c1cccc(NC(=S)Nc2ccccc2)c1 | 4.2 µM | 58.7 µM | 5.57 µM | – | – | – | –
12 | CC(=O)OC[C@H]1O[C@@H](CC(=O)/C=C/c2cccc(NC(=O)Nc3ccccc3)c2)[C@@H](OC(C)=O)[C@@H](OC(C)=O)[C@@H]1OC(C)=O | 6.65 µM | 102 µM | 7.81 µM | – | – | – | –
13 | COc1ccc(NC(=O)Nc2cccc(/C=C/C(=O)C[C@@H]3O[C@H](COC(C)=O)[C@@H](OC(C)=O)[C@H](OC(C)=O)[C@H]3OC(C)=O)c2)c([N+](=O)[O-])c1 | 0.94 µM | 730 µM | 4.23 µM | 92.7% | – | – | –
14 | CC(=O)OC[C@H]1O[C@@H](CC(=O)/C=C/c2cccc(NS(=O)(=O)c3ccc(C)cc3)c2)[C@H](OC(C)=O)[C@@H](OC(C)=O)[C@@H]1OC(C)=O | 1.14 µM | 584 µM | 2.17 µM | – | – | – | –
15 | O=C(Nc1ccccc1)Nc1ccccc1 | 13.8 µM | 352 µM | > 20 µM | – | – | – | –
16 | COc1cc([N+](=O)[O-])ccc1NC(=S)Nc1cccc(/C=C/C(=O)C[C@@H]2O[C@H](CO)[C@@H](O)[C@H](O)[C@H]2O)c1 | 3.35 µM | 203 µM | 2.47 µM | – | – | – | –
17 | CC(=O)OC[C@H]1O[C@@H](CC(=O)/C=C/c2ccc(NC(=S)Nc3ccccc3)cc2)[C@H](OC(C)=O)[C@@H](OC(C)=O)[C@@H]1OC(C)=O | 1.83 µM | 663 µM | 2.3 µM | – | – | – | –
18 | CC(=O)OC[C@H]1O[C@@H](CC(=O)/C=C/c2cccc(NS(=O)(=O)c3ccc(C)cc3)c2)[C@@H](OC(C)=O)[C@@H](OC(C)=O)[C@@H]1OC(C)=O | 3.96 µM | 123 µM | 5.19 µM | – | – | – | –

Row | Compound | IC50 [1] | CC50 at 48 h [2] | IC50 [3] | inhibition [4] | half-life [5] | Vd [6] | clearance [7]
19 | CC(=O)OC[C@H]1O[C@@H](CC(=O)/C=C/c2ccc(NC(=O)Nc3ccccc3)cc2)[C@H](OC(C)=O)[C@@H](OC(C)=O)[C@@H]1OC(C)=O | 5.27 µM | 820 µM | 5.55 µM | – | – | – | –
20 | CC(=O)OC[C@H]1O[C@@H](CC(=O)/C=C/c2ccc(NC(=O)Nc3ccc4ccccc4c3)cc2)[C@H](OC(C)=O)[C@@H](OC(C)=O)[C@@H]1OC(C)=O | 2.18 µM | 482 µM | 5.36 µM | – | – | – | –
21 | O=C(/C=C/c1cccc(NC(=S)Nc2ccccc2)c1)C[C@@H]1O[C@H](CO)[C@@H](O)[C@H](O)[C@H]1O | 9.43 µM | 371 µM | 7.2 µM | – | – | – | –
22 | CC(=O)OC[C@H]1O[C@@H](CC(=O)/C=C/c2cccc(NC(=S)Nc3ccccc3)c2)[C@H](OC(C)=O)[C@@H](OC(C)=O)[C@@H]1OC(C)=O | 1.91 µM | 337 µM | 4.48 µM | – | – | – | –
23 | Cc1ccc(S(=O)(=O)Nc2cccc(/C=C/C(=O)C[C@@H]3O[C@H](CO)[C@@H](O)[C@H](O)[C@H]3O)c2)cc1 | 2.2 µM | 381 µM | 3.87 µM | – | – | – | –
24 | Cc1ccc(S(=O)(=O)Nc2ccccc2)cc1 | > 20 µM | 221 µM | > 20 µM | – | – | – | –
25 | O=C(/C=C/c1cccc(NC(=O)Nc2ccccc2)c1)C[C@@H]1O[C@H](CO)[C@@H](O)[C@H](O)[C@@H]1O | 20 µM | – | 20 µM | – | – | – | –
26 | O=C(/C=C/c1cccc(NC(=S)Nc2ccccc2)c1)C[C@@H]1O[C@H](CO)[C@@H](O)[C@H](O)[C@@H]1O | 13.1 µM | 336 µM | 17.8 µM | – | – | – | –
27 | CC(=O)O[C@@H]1[C@@H](OC(C)=O)[C@H](OC(C)=O)CO[C@H]1CC(=O)/C=C/c1cccc(NS(=O)(=O)c2ccc(C)cc2)c1 | 1.39 µM | 268 µM | 3 µM | – | – | – | –
28 | Cc1ccc(S(=O)(=O)Nc2cccc(/C=C/C(=O)C[C@@H]3OC[C@@H](O)[C@H](O)[C@H]3O)c2)cc1 | 2.93 µM | 94.7 µM | 6.35 µM | – | – | – | –
29 | O=C(/C=C/c1cccc(NC(=O)Nc2ccccc2)c1)C[C@@H]1OC[C@@H](O)[C@H](O)[C@H]1O | 3.44 µM | 309 µM | 5.43 µM | – | – | – | –
30 | O=C(/C=C/c1cccc(NC(=S)Nc2ccccc2)c1)C[C@@H]1OC[C@@H](O)[C@H](O)[C@H]1O | 6.89 µM | 289 µM | 8.69 µM | – | – | – | –
31 | O=C(/C=C/c1ccc(NC(=O)Nc2ccccc2)cc1)C[C@@H]1O[C@H](CO)[C@@H](O)[C@H](O)[C@H]1O | 7.51 µM | 1130 µM | 7.66 µM | – | – | – | –
32 | CCOC(=O)/C=C/c1cccc(NS(=O)(=O)c2ccc(C)cc2)c1 | 16.1 µM | 77.1 µM | 16.1 µM | – | – | – | –
33 | CC(=O)O[C@@H]1[C@@H](OC(C)=O)[C@H](OC(C)=O)CO[C@H]1CC(=O)/C=C/c1cccc(NC(=O)Nc2ccccc2)c1 | 3.17 µM | 102 µM | 4.92 µM | 76.9% | – | – | –
34 | O=C(/C=C/c1cccc(NC(=O)Nc2ccccc2)c1)C[C@@H]1O[C@H](CO)[C@@H](O)[C@H](O)[C@H]1O | 3.77 µM | 373 µM | 3.39 µM | – | – | – | –
35 | COc1ccc(NC(=O)Nc2cccc(/C=C/C(=O)C[C@@H]3O[C@H](CO)[C@@H](O)[C@H](O)[C@H]3O)c2)c([N+](=O)[O-])c1 | 0.56 µM | 709 µM | 1.58 µM | – | 7.1 h | 2.8 L/kg | 17 mL/min/kg

Source: ChEMBL document CHEMBL3351535, “Identification of novel phenyl butenonyl C-glycosides with ureidyl and sulfonamidyl moieties as antimalarial agents” (ACS Med Chem Lett, 2014)
